Measured values as given in ChEMBL document CHEMBL3044545, “Synthesis and evaluation of antioxidant and antimicrobial properties of thymol containing pyridone moieties” (2012).

Assays:
Assay type in all cases: functional
Escherichia coli [1] = test: Antimicrobial activity against Escherichia coli at 100 ppm after 48 hr by agar well diffusion method; conditions: read-out: IZ
[2] = Antioxidant activity assessed as inhibition of NBT reduction at 40 ug/ml
[3] = Antioxidant activity assessed as inhibition of NBT reduction at 20 ug/ml
Aspergillus niger [4] = test: Antimicrobial activity against Aspergillus niger at 100 ppm after 48 hr by agar well diffusion method; conditions: read-out: IZ
[5] = Antioxidant activity assessed as inhibition of NBT reduction at 100 ug/ml
[6] = Antioxidant activity assessed as inhibition of NBT reduction at 60 ug/ml
[7] = Antioxidant activity assessed as inhibition of NBT reduction at 80 ug/ml
Staphylococcus aureus [8] = test: Antimicrobial activity against Staphylococcus aureus at 100 ppm after 48 hr by agar well diffusion method; conditions: read-out: IZ
Talaromyces marneffei [9] = test: Antimicrobial activity against Talaromyces marneffei at 100 ppm after 48 hr by agar well diffusion method; conditions: read-out: IZ
Escherichia coli [10] = test: Antimicrobial activity against Escherichia coli at 100 ug/ml after 48 hr by agar well diffusion method; conditions: read-out: IZ
Staphylococcus aureus [11] = test: Antimicrobial activity against Staphylococcus aureus at 100 ug/ml after 48 hr by agar well diffusion method; conditions: read-out: IZ
Talaromyces marneffei [12] = test: Antimicrobial activity against Talaromyces marneffei at 100 ug/ml after 48 hr by agar well diffusion method; conditions: read-out: IZ
Aspergillus niger [13] = test: Antimicrobial activity against Aspergillus niger at 100 ug/ml after 48 hr by agar well diffusion method; conditions: read-out: IZ

| SMILES | zone of inhibition at 100 ppm (Escherichia coli [1]) [mm] | inhibition [2] [%] | inhibition [3] [%] | zone of inhibition at 100 ppm (Aspergillus niger [4]) [mm] | inhibition [5] [%] | inhibition [6] [%] | inhibition [7] [%] | zone of inhibition at 100 ppm (Staphylococcus aureus [8]) [mm] | zone of inhibition at 100 ppm (Talaromyces marneffei [9]) [mm] | zone of inhibition at 100 µg/mL (Escherichia coli [10]) [mm] | zone of inhibition at 100 µg/mL (Staphylococcus aureus [11]) [mm] | zone of inhibition at 100 µg/mL (Talaromyces marneffei [12]) [mm] | zone of inhibition at 100 µg/mL (Aspergillus niger [13]) [mm] |
| --- | --- | --- | --- | --- | --- | --- | --- | --- | --- | --- | --- | --- | --- |
| Cc1ccc(C(C)C)c(O)c1 [THYMOL] | 8 | 16 | 10 | 8 | 31 | 22.5 | 27.5 | 9 | 7 |  |  |  |  |
| COc1ccc(-c2cc(-c3cc(C(C)C)c(O)cc3C)[nH]c(=O)c2C#N)cc1OC | 13 | 44 | 25 | 9 | 61 | 52 | 58 | 13 | 10 |  |  |  |  |
| Cc1onc(-c2ccccc2Cl)c1C(=O)N[C@@H]1C(=O)N2[C@@H]1SC(C)(C)[C@@H]2C(=O)O [CLOXACILLIN] |  |  |  |  |  |  |  |  |  | 17 | 18 |  |  |
| Cc1cc(O)c(C(C)C)cc1-c1cc(-c2ccccc2[N+](=O)[O-])c(C#N)c(=O)[nH]1 | 14 | 25.5 | 20 | 12 | 37.5 | 31 | 35 | 13 | 11 |  |  |  |  |
| COc1cc(-c2cc(-c3cc(C(C)C)c(O)cc3C)[nH]c(=O)c2C#N)ccc1O | 14 | 32 | 26 | 11 | 44 | 37.5 | 42 | 15 | 11 |  |  |  |  |
| COc1ccc(-c2cc(-c3cc(C(C)C)c(O)cc3C)[nH]c(=O)c2C#N)cc1 | 14 | 35 | 24 | 10 | 54 | 43 | 47.5 | 13 | 10 |  |  |  |  |
| COc1ccc(-c2cc(-c3cc(C(C)C)c(O)cc3C)[nH]c(=O)c2C#N)c(OC)c1 | 13 | 37.5 | 27 | 10 | 58 | 48.5 | 55 | 14 | 10 |  |  |  |  |
| Cc1cc(O)c(C(C)C)cc1-c1cc(-c2ccccc2Cl)c(C#N)c(=O)[nH]1 | 15 | 20 | 12 | 11 | 34 | 26 | 32 | 14 | 12 |  |  |  |  |
| Cc1cc(O)c(C(C)C)cc1-c1cc(-c2ccco2)c(C#N)c(=O)[nH]1 | 12 | 42.5 | 26 | 10 | 70 | 55.2 | 64 | 13 | 9 |  |  |  |  |
| COc1cc(OC)c(-c2cc(-c3cc(C(C)C)c(O)cc3C)[nH]c(=O)c2C#N)c(OC)c1 | 10 | 52.6 | 32 |  | 82.5 | 66 | 79 | 11 |  |  |  |  |  |
| Cc1cc(O)c(C(C)C)cc1-c1cc(-c2ccc(N(C)C)cc2)c(C#N)c(=O)[nH]1 | 14 | 43 | 30 | 14 | 68 | 53 | 66.5 | 14 | 13 |  |  |  |  |
| Cc1cc(O)c(C(C)C)cc1-c1cc(-c2cccs2)c(C#N)c(=O)[nH]1 | 13 | 41 | 26 | 10 | 68 | 54.3 | 63 | 14 | 11 |  |  |  |  |
| OC(Cn1cncn1)(Cn1cncn1)c1ccc(F)cc1F [FLUCONAZOLE] |  |  |  |  |  |  |  |  |  |  |  | 17 | 16 |
| COc1cccc(-c2cc(-c3cc(C(C)C)c(O)cc3C)[nH]c(=O)c2C#N)c1 | 14 | 30 | 22 | 11 | 49 | 38 | 43 | 13 | 11 |  |  |  |  |
| COc1cc(-c2cc(-c3cc(C(C)C)c(O)cc3C)[nH]c(=O)c2C#N)cc(OC)c1OC | 11 | 55 | 35 |  | 84.5 | 71 | 82 | 10 |  |  |  |  |  |
| Cc1cc(O)c(C(C)C)cc1-c1cc(-c2ccccc2)c(C#N)c(=O)[nH]1 | 10 | 29 | 22 | 9 | 41 | 34 | 58 | 11 | 9 |  |  |  |  |
